Series [1] has as its system HSV-1. As to the kind of experiment: HSV-1 release from infected Vero cells, plaque assay. The note with it: Vero cells.
For series [2], the system named is HSV-2. The series is described as follows: Transmission electron microscopy of HSV-2 infected Vero cells, particle counts. The note with it: 18 μM ilaprazole, 24 h, HSV-2, Vero cells.
Description: Vero cells grown on glass cover slips were infected with HSV-2 at MOI of 0.1 pfu/cell for 2 h and then treated for 24 h with 105 μM tenatoprazole or vehicle control.
(§2) Transmission electron Microscopy. Vero cells on glass cover slips were infected with HSV-2 at a MOI of 0.1 for two hours. Then 105 μM of tenatoprazole or 18 μM Ilaprazole was added and cells incubated for 24 hours. Tissue samples were fixed in 0.1 M sodium cacodylate buffer pH 7.3 containing 2% paraformaldehyde and 2.5% glutaraldehyde and post-fixed with 2% osmium tetroxide 427 in unbuffered aqueous solution. The samples were rinsed with distilled water, en bloc stained with 3% uranyl acetate, rinsed with distilled water, dehydrated in ascending grades of ethanol, transitioned with propylene oxide, embedded in the resin mixture of Embed 812 kit and cured in a 60° C. oven. Samples were sectioned on a Leica Ultracut UC6 ultramicrotome. 1 μm thick sections were collected and stained with Toluidine Blue O and 70 nm sections were collected on 200 mesh copper grids; thin sections were stained with uranyl acetate and Reynolds lead citrate. Transmission electron microscopy (TEM) was performed on a FEI Tecnai Spirit G2.
The target of series [3] is T1, Tsg101-UEV (Tsg101 amino acids 1-145) (Homo sapiens, UniProt Q99816).
T1 sequence (Q99816 1-145): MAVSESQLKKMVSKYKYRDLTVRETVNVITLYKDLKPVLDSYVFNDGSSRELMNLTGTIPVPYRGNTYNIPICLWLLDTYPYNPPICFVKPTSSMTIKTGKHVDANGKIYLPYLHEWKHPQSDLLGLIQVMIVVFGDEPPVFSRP
As to the kind of experiment: Fluorescence thermal shift (FTS) assay, binding to Tsg101-UEV. Particulars: for Thermal shift (Tm shift) of Tsg101-UEV caused by compound: FTS dose response, result in words; for Tm shift of Tsg101 in the FTS assay on addition of DTT: with reducing agent DTT.
Description: The fluorescence-based thermal shift assay is based on the observation that a protein unfolds upon heating, exposing the hydrophobic residues within its tertiary structure. The unfolding temperature (Tm) is determined by the protein's primary sequence and solution environment. The FTS assay uses a fluorescent dye sensitive to a hydrophobic environment to probe protein stability and its modulation by small molecule ligands. The dye has a low fluorescence quantum yield when in a polar environment. Once in contact with the hydrophobic core normally buried within a folded protein that has become exposed during the thermal unfolding (melting) process, the quantum yield of the dye increases, thus providing a reporting signal. Furthermore, a protein's stability can be affected by ligand binding, resulting in an increase or decrease in its melting temperature. FTS assay uses the Tm shift upon binding of a ligand to identify hit compounds for drug discovery.
We screened chemical compounds using a fluorescence thermal shift (FTS) assay (27, 28) to identify small molecules that bind directly to a truncated form of Tsg101 (amino acids 1-145) which contains the Ubiquitin E2 variant (UEV) ubiquitin-binding domain (FIG. 1A, 1B, 1C). […] This truncated Tsg101, called Tsg101-UEV, was used because full-length Tsg101 has significant solubility issues in aqueous solution. Tsg101 is an adaptor protein and thus lacks a readily deployable functional assay, making FTS a tractable approach to identify interacting compounds. FTS monitors protein thermal denaturation using SYPRO® Orange, a dye which fluoresces when bound to hydrophobic surfaces, which allows monitoring of the changes in hydrophobic surface exposure during protein denaturation (27). Since ligand binding affects protein thermal stability, it can be detected through modulation of protein thermal denaturation (melting) as a shift in melting temperature (Tm). Tsg101-UEV has a well-defined melting curve suitable for FTS. We used the FTS assay to identify compounds that bind to Tsg101-UEV.
Fluorescence thermal shift (FTS) screening to identify small molecule binding to Tsg101-UEV. FTS using thermal shift elicited by the small molecule binding effect to protein stability. FTS monitors protein thermal denaturation using environment-sensitive dye Sypro® Orange which fluoresces when bound to hydrophobic surfaces, taking advantage of the changes in hydrophobic surface exposure in protein denaturation. Discovery of small molecule binding to target protein utilizes the observation that ligand binding affects protein thermal stability, and therefore can be detected through a shift in the protein's thermal denaturation (melting) temperature (Tm). We have employed FTS to reveal changes in thermodynamic properties of Tsg101 elicited by its interaction with a small molecule. […] A fluorescence dye Sypro® Orange (Invitrogen) was used for assay detection. The dye is excited at 473 nm and has a fluorescence emission at 610 nm. The dye binds to hydrophobic regions of a protein that are normally buried in a native protein structure. […] The Tsg101 fragment was premixed at a concentration of 2 μM with a 5× concentration of Sypro® Orange in HEPES buffer (100 mM HEPES, 150 mM NaCl, pH 7.5). Then 10 μl of the protein-dye mix was added to an assay plate and 10 to 50 nanoliters of compound, equal to 10 to 50 μM, were added with an acoustic transfer robot Echo550 (Labcyte, CA).

The test system of series [4] is HIV-1. The note with it: 293T cells, media, 24 h.
Description: Effect of Ilaprazole on release of HIV-1 in vitro. […] To this end, cells were transfected with pR9-HIV-1Ba-L plasmid and release of virus into the media fraction was detected by monitoring the capsid (CA) protein (p24) via enzyme linked immunosorbent assay analysis. The drug was tested at concentrations between 0 and 240 μM and the effect of the drug on release of virus assessed (Table 4, column 2).
HIV-1 transfection of 293 T cells. 293T cells (American Type Culture Collection) were grown in a 24-well Clear Flat Bottom TC-treated Multiwell Cell Culture Plate using Dulbecco's modified Eagle's medium (Cellgro) containing fetal bovine serum (10%), 100 U/ml penicillin, 100 μg/ml streptomycin, and 292 μg/ml 1-glutamine (Cellgro). Cells were grown to 60-70% confluency at 37° C. and 5% CO2 408 prior to addition of drug treatment. Culture media was aspirated and replaced with media containing drug compound 7 hours prior to transfection of the plasmid encoding the HIV-1 genome. Transfection was done using reagent Polyethyleneimine (PEI, Polysciences). […] After 24 h and 48 h, tissue culture media was collected and passed through a 0.45-micron filter. Virus released from cells was quantified by media-associated p24 determined using fluorescently tagged CA targeting antibody (PerkinElmer) and equivalent amounts of p24 as standards.
Series [5] deals with Vero cells. The series is described as follows: Vero cell toxicity, WST-1 reagent. The class given is cell-based. The source says:
(§1) Drug potency and cell toxicity. […] Cell toxicity experiments were repeated twice.
For orientation: Tetrazolium assays rely on reduction of a dye to a coloured formazan, in cell work by metabolically active cells.

Series [6] relates to HSV-1. As to the kind of experiment: Transmission electron microscopy of HSV-1 infected Vero cells, particle counts. Particulars: 18 μM ilaprazole, 24 h, HSV-1, Vero cells.
Description: as §2
The subject of series [7] is Vero cells. The series is described as follows: Vero cell viability, 96 AQueous One Solution cell proliferation assay. Type of series: cell-based.
Text: as §1

Another series deals with 293T cells. As to the kind of experiment: 293T cell viability, 96 Aqueous One reagent. Type of series: cell-based.
Text: as §1

Series [8] deals with HSV-2. As to the kind of experiment: HSV-2 release from infected Vero cells, plaque assay. The note with it: for Titer of HSV-2 Media, 24 h / Titer of HSV-2 in media + cell lysate, 24 h / Titer of HSV-2 in media, 48 h: Vero cells; for EC50: read-out: EC50 (μM) Inhibition of HSV-2 Budding at 24 h.
For series [9], the system named is HIV-1. The note with it: 293T cells in culture; cited from earlier work.
Where [10] appears, read: HSV-2 infected Vero cells, virus released into media, plaque assay.
The mark [11] stands for this setting: Human alphaherpesvirus 2, Vero, 24 h.

These results are taken from patent US20230265069A1, “Small Molecule Inhibitors That Block the Budding of Enveloped Viruses” (priority 2020, published 2023).

“Also recorded” adds a separate entry of the source. Read-outs that look alike come from different tables or passages of the source.

As for Ilaprazole, the “Titer of HSV-1 Media, 24 h” value in the series on HSV-1 [1] (Ilaprazole 4.5 μM) is 2.00E+06; in the series with HSV-1 [1] (Ilaprazole 9.0 μM), 7.50E+04; in the series on HSV-1 [1] (Ilaprazole 13.5 μM) it was 3.20E+04; with HSV-1 [1] (Ilaprazole 18.0 μM) it was 6.00E+02; in the series on HSV-1 [1] (Ilaprazole 22.5 μM), 1.00E+02. The “Titer of HSV-1 Media, 48 h” value worked out at 2.40E+06 with HSV-1 [1] (Ilaprazole 4.5 μM); 2.50E+05 in the series with HSV-1 [1] (Ilaprazole 9.0 μM); 2.00E+02 with HSV-1 [1] (Ilaprazole 13.5 μM); 0.00E+00 in the series on HSV-1 [1] (Ilaprazole 18.0 μM); 0.00E+00 with HSV-1 [1] (Ilaprazole 22.5 μM). For the same molecule, the “Titer of HSV-1 in media + cell lysate, 24 h” value turned out to be 7.0E+07 in the series on HSV-1 [1] (Ilaprazole 4.5 μM); 3.6E+06 with HSV-1 [1] (Ilaprazole 9.0 μM); 3.8E+05 with HSV-1 [1] (Ilaprazole 13.5 μM); 9.1E+03 in the series with HSV-1 [1] (Ilaprazole 18.0 μM); 7E+02 in the series with HSV-1 [1] (Ilaprazole 22.5 μM). The “Inhibition of virus release 4 and 5 days after a single application” value with HSV-1 [1] (data not shown) was “Significant inhibition was still observed”. Also, the concentration for a half-maximal effect (EC50) is 0.8 to 1.2 µM with HSV-1 [1] (read-out: EC50, inhibition of HSV-1 release at 72 h, 72 h after a single application); 3 to 9 µM in the series with HSV-1 [1] (read-out: EC50, inhibition of HSV-1 release, 24 h, range stated jointly for HSV-1 and HSV-2); 3 to 9 µM in the series on HSV-2 [8] (setting [10]). For the same molecule, the “Average number of virus particles in the nucleus” value in the series with HSV-2 [2] is on record as 31 particles; in the series with HSV-1 [6], 43 particles. Moreover, the “Range of virus particles in the nucleus” value with HSV-2 [2] is given as 9-56 particles; in the series with HSV-1 [6] it was 15-166 particles. The “Virus particles in the cytoplasm” value in the series with HSV-2 [2] and with HSV-1 [6] was 0 particles each time. Also, the “Thermal shift (Tm shift) of Tsg101-UEV caused by compound” value (from here on “Thermal shift (Tm shift)”) in series [3] is on record as “largest thermal shift”. In addition, the “Tm shift of Tsg101 in the FTS assay on addition of DTT” value (shortened to “Tm shift of Tsg101 in the FTS assay”) in series [3] is “blocked by the addition of DTT; also recorded: abolishes the Tm shift”. In addition, the “p24 pg/ml HIV” value in the series with HIV-1 [4] (Ilaprazole 0.5 μM) worked out at 4063 pg/mL; with HIV-1 [4] (Ilaprazole 1 μM), 3518 pg/mL; in the series with HIV-1 [4] (Ilaprazole 2 μM) it was 1652 pg/mL; with HIV-1 [4] (Ilaprazole 5 μM), 274 pg/mL; in the series on HIV-1 [4] (Ilaprazole 10 μM), 178 pg/mL. Moreover, the “WST-1 Cell Toxicity OD440-660 nm, 24 h” value in the series with Vero cells [5] (Ilaprazole 4.5 μM) is 1.058; in the series on Vero cells [5] (Ilaprazole 9.0 μM) it was 1.055; in the series on Vero cells [5] (Ilaprazole 13.5 μM), 0.950; in the series with Vero cells [5] (Ilaprazole 27 μM), 1.055; in the series with Vero cells [5] (Ilaprazole 270 μM), 0.423. Also, in the series with Vero cells [7] (24 h, result in words), the “Cell toxicity at concentrations that block virus release” value is “did not observe cell toxicity”. The “96 ® Cell Viablility OD490 nm 24 h” value with Vero cells [7] (Ilaprazole 4.5 μM) worked out at 1.764; with Vero cells [7] (Ilaprazole 9.0 μM), 1.711; with Vero cells [7] (Ilaprazole 13.5 μM), 1.690; with Vero cells [7] (Ilaprazole 18.0 μM), 1.737; with Vero cells [7] (Ilaprazole 54 μM), 1.658; in the series with Vero cells [7] (Ilaprazole 270 μM), 0.466. For the same molecule, the “Toxicity to cells at concentrations that inhibited release of HIV-1” value in the series on 293T cells (293T cells) is reported as “did not detect toxicity”. The “96 ® Cell Viability OD490 nm, 24 h” value in the series on 293T cells (Ilaprazole 1.8 μM) came out at 1.672; with 293T cells (Ilaprazole 3.6 μM) it was 1.576; in the series on 293T cells (Ilaprazole 7.2 μM) it was 1.684; in the series with 293T cells (Ilaprazole 10.8 μM), 1.650; in the series with 293T cells (Ilaprazole 13.5 μM), 1.693. For the same molecule, the “Titer of HSV-2 Media, 24 h” value was found to be 1.00E+05 in the series on HSV-2 [8] (Ilaprazole 4.5 μM); 5.00E+04 in the series with HSV-2 [8] (Ilaprazole 9.0 μM); 1.00E+04 in the series on HSV-2 [8] (Ilaprazole 13.5 μM); 1.50E+03 with HSV-2 [8] (Ilaprazole 18.0 μM); 1.00E+02 in the series with HSV-2 [8] (Ilaprazole 22.5 μM). The “Titer of HSV-2 in media + cell lysate, 24 h” value in the series on HSV-2 [8] (Ilaprazole 4.5 μM) came to 3.60E+07; in the series with HSV-2 [8] (Ilaprazole 9.0 μM), 4.50E+06; with HSV-2 [8] (Ilaprazole 13.5 μM), 4.30E+06; in the series on HSV-2 [8] (Ilaprazole 18.0 μM) it was 2.00E+05; in the series on HSV-2 [8] (Ilaprazole 22.5 μM), 1.50E+04. The “Titer of HSV-2 in media, 48 h” value with HSV-2 [8] (Ilaprazole 4.5 μM) is on record as 2.50E+05; in the series with HSV-2 [8] (Ilaprazole 9.0 μM), 7.50E+04; with HSV-2 [8] (Ilaprazole 13.5 μM), 5.50E+04; in the series with HSV-2 [8] (Ilaprazole 18.0 μM), 1.50E+03; in the series on HSV-2 [8] (Ilaprazole 22.5 μM), 3.00E+02.

Take Dexlansoprazole: the EC50 in the series on HSV-2 [8] (setting [10]) was determined as 76 µM.

For the molecule `Cc1c(OCC(F)(F)F)ccnc1C[S+]([O-])c1nc2ccccc2[nH]1` (stereo not drawn) [Lansoprazole], the concentration for a half-maximal effect (EC50) in the series with HSV-2 [8] (setting [11]) was determined as 84 µM.

For 4-desmethoxy-omeprazole, the half-maximal effective concentration (EC50) in the series on HSV-2 [8] (setting [10]) was 52 µM.

For Esomeprazole, the “Inhibition of release of infectious HIV-1 from 293T cells (earlier report)” value with HIV-1 [9] was “quantitatively inhibit”. In the series with HSV-2 [8] (setting [10]), the EC50 worked out at 140 µM.

As to `COc1ccc2[nH]c([S+]([O-])Cc3ncc(C)c(OC)c3C)nc2c1` (stereo not drawn) [Omeprazole], in the series on HSV-2 [8] (setting [11]), the EC50 was determined as 78 µM.

For the molecule Pantoprazole, in [3], the “Thermal shift (Tm shift)” value was “smallest thermal shift” and the “Tm shift of Tsg101 in the FTS assay” value is “abolishes the Tm shift”. Besides, the “EC50 (μM) Inhibition of HSV-2 Budding at 24 h” value (shortened to “EC50 (μM) Inhibition”) with HSV-2 [8] (setting [10]) was “inactive”.

In the case of “5-methoxy-2[[(3,5-dimethyl-4-methoxy-pridin-2-yl-N-oxide)methyl]sulfinyl]-1H-benzimidazole [O-omeprazole]”, in [3], the “Thermal shift (Tm shift)” value is recorded as “did not cause a detectable thermal shift”. In the series with HSV-2 [8] (setting [10]), the “EC50 (μM) Inhibition” value was “inactive”.

For Rabeprazole, the “Tm shift of Tsg101 in the FTS assay” value in [3] was “abolishes the Tm shift”. Also, the “EC50 (μM) Inhibition” value with HSV-2 [8] (setting [10]) is “inactive”.

In general, EC50 refers to the concentration giving half of the maximal effect.
